Results on twelve compounds are retold here after US20210059933A1, “HYDROGELS AS ORAL DELIVERY DOSAGE FORMS, METHODS OF MAKING AND USING SAME” (priority 2019, published 2021).

For series [1] the following is noted: lipophilic partition coefficient of the drug; cited from earlier work.
The conditions of series [2]: drug by itself; cited from earlier work.
Series [3] is described as follows: Release of drug from drug-loaded disintegrating hydrogel into simulated gastric fluid, supersaturation by UV-vis. The following applies: 2 hours, 150 rpm, hydrogel from 25% by volume acetal cross-linker, drug loading as in % wt drug. On the procedure:
A disintegrating hydrogel is first formed from 0.125 mL of a solution of dimethylformamide containing 25% by volume of the cross-linker triethylene glycol di[ethyl-1-methacryloyloxy poly(ethylene glycol) acetal] and 5% by volume of the photoinitiator 2-hydroxy-2-methylpropiophenone then purified by washing several times in ethanol. This disintegrating hydrogel is then transferred to the same solvent used to maximize the dissolution of the active pharmaceutical ingredient of interest. The hydrogel is transferred to a silicone mold and heated for a minimum amount of time to evaporate a majority of the solvent soaked into the hydrogel pores. Then about 0.1 mL of a solution of the active pharmaceutical ingredient solubilized in the preferred solvent is added to the silicone mold containing the hydrogel, which is allowed to swell in order to absorb the solution. Once absorbed, the solvent is removed in a vacuum oven in order to induce the crystallization of the active pharmaceutical ingredient in the hydrogel pores. The mass of the active pharmaceutical ingredient contained in the disintegrating hydrogel is determined experimentally then normalized by the combined mass of both components to quantify the weight fraction of the active pharmaceutical ingredient.
The hydrogel is added to the vial and allowed to dissolve over the course of 2 hours. The presence of the active pharmaceutical ingredient in the aqueous solution is monitored by ultraviolet-visible spectrometry to quantify the concentration relative to the inherent solubility of the active pharmaceutical ingredient without a hydrogel present. The ratio of the solubility achieved upon release from disintegrating hydrogels to the solubility achieved upon dissolution without disintegrating hydrogels is the supersaturation.

Series [4] is described as follows: Dissolution of drug encapsulated in acid-hydrolysable hydrogels in 0.1M HCl solution (pH=1). It is filed as physicochemical. The conditions noted are these: immediate release acid-hydrolysable hydrogels. The text has this:
FIG. 3 is a dissolution profile of vitamin E (tocopherol) encapsulated at various drug loading levels in hydrogels composed of 25% by volume acetal cross-linker into a 0.1M HCl solution (pH=1).
The hydrogel labelled acetal hydrogel [w/ 10% surfactant] {w/ 15% surfactant} were synthesized by polymerizing a pre-cursor solution containing 25% [20%] {20%} by volume of the triethylene glycol di[ethyl-1-methacryloyloxy poly(ethylene glycol) acetal] cross-linker, 0% [3.9%] {3.9%} by volume of methyl methacrylate, 0% [6.1%] {6.1%} by volume of dimethylaminoethyl methacrylate, and 0% [10%] {15%} by volume of a hydrolytically hydrolysable surfactant monomer: acetaldehyde-(stearyl PEG-20 ether)-(acrylate ethylene glycol) acetal. Each drug substance is loaded into the pores of the hydrogel by first dissolving in ethanol and adding the organic solution into a silicone mold containing the pre-formed and washed hydrogel followed by evaporation of the solvent. Sufficient drug substance solution is added to the mold to reach a range of drug loading values.

Consider `COC1=C(OC)C(=O)C(C/C=C(\C)CC/C=C(\C)CC/C=C(\C)CC/C=C(\C)CC/C=C(\C)CC/C=C(\C)CC/C=C(\C)CC/C=C(\C)CC/C=C(\C)CCC=C(C)C)=C(C)C1=O` [Coenzyme Q10], for which the log partition coefficient (log P) in series [1] is reported as 9.9. Moreover, the “C_s (aqueous solubility)” value in series [2] was 0.2 µg/mL. In addition, the “X_sat (supersaturation: ratio of solubility achieved upon release from disintegrating hydrogels to solubility without hydrogels)” value in series [3] is recorded as 69.1.

`CCCCN(CCCC)CC(O)c1cc(Cl)cc2c1-c1ccc(Cl)cc1/C2=C/c1ccc(Cl)cc1` (centres unmarked) [lumefantrine]: in series [1], the “log P” value is listed as 8.34. The “C_s (aqueous solubility)” value in series [2] was 0.04 µg/mL. Take `C[C@@H]1[C@H](O)[C@@H](C)/C=C/C=C/C=C/C=C/C=C/C=C/C=C/[C@H](O[C@@H]2O[C@H](C)[C@@H](O)[C@H](N)[C@@H]2O)C[C@@H]2O[C@](O)(C[C@@H](O)C[C@@H](O)[C@H](O)CC[C@@H](O)C[C@@H](O)CC(=O)O[C@H]1C)C[C@H](O)[C@H]2C(=O)O` [amphotericin b]: in series [1], the “log P” value was 0.8. In series [2], the “C_s (aqueous solubility)” value is 82 µg/mL. In addition, in series [3], the “X_sat (supersaturation: ratio of solubility achieved upon release from disintegrating hydrogels to solubility without hydrogels)” value is reported as 13.8. As for `CCCSc1ccc2nc(NC(=O)OC)[nH]c2c1` [albendazole], the lipophilicity (log P) in series [1] is on record as 2.7. Also, the “C_s (aqueous solubility)” value in series [2] was 22.8 µg/mL. Further, in series [3], the “X_sat (supersaturation: ratio of solubility achieved upon release from disintegrating hydrogels to solubility without hydrogels)” value is on record as 2.01. In the case of `CC(=O)[C@H]1CC[C@H]2[C@@H]3CCC4=CC(=O)CC[C@]4(C)[C@H]3CC[C@]12C` [progesterone], in series [4], the “supersaturation level of final concentration” value is ≤ 11 times the intrinsic solubility. For the same compound, the “C_s (aqueous solubility)” value in series [2] was 5.5 µg/mL.

With `C[C@H]1C[C@@H]2[C@H]([C@@H](O)C[C@@]3(C)[C@H]2CC[C@]3(O)C(=O)CO)[C@@]2(C)C=CC(=O)C=C12` [methylprednisolone], the lipophilicity (log P) in series [1] was 1.53. Consider `CC/C=C\C/C=C\C/C=C\C/C=C\C/C=C\CCCC(=O)O` [eicosapentaenoic acid], for which the lipophilicity (log P) in series [1] is recorded as 6.1. The “C_s (aqueous solubility)” value in series [2] was 0.29 µg/mL.

Consider `C=C(C)[C@@H]1CCC(C)=C[C@H]1c1c(O)cc(CCCCC)cc1O` [cannabidiol (CBD), cannabidiol], for which the “X_sat (supersaturation: ratio of solubility achieved upon release from disintegrating hydrogels to solubility without hydrogels)” value in series [3] was 22.3. For the compound `Cc1cn(-c2cc(NC(=O)c3ccc(C)c(Nc4nccc(-c5cccnc5)n4)c3)cc(C(F)(F)F)c2)cn1` [nilotinib], the “log P” value in series [1] is listed as 4.51. The “C_s (aqueous solubility)” value in series [2] was 2.01 µg/mL. Take `CC(C)/N=c1\cc2n(-c3ccc(Cl)cc3)c3ccccc3nc-2cc1Nc1ccc(Cl)cc1` [clofazimine]: the “C_s (aqueous solubility)” value in series [2] was 0.23 µg/mL. As to `Cc1ccc(Nc2nccc(N(C)c3ccc4c(C)n(C)nc4c3)n2)cc1S(N)(=O)=O` [pazopanib], in series [1], the lipophilicity (log P) is given as 3.59. In addition, in series [2], the “C_s (aqueous solubility)” value was 43.3 µg/mL.

As for tocopherol [tocopherol (vitamin E)], the “supersaturation level of final concentration” value in series [4] was “up to 74 times the intrinsic solubility”.

Broadly, the log P is the decadic logarithm of the partition coefficient of the neutral form, usually between octanol and water.
